Experimental data taken from the NIST ThermoML archive (doi:10.1007/s10765-013-1469-0).

Assay: xn = mol fraction of the nth substance listed
Conditions: 101 kPa, Liquid; for viscosity: Concentric cylinders viscometry; for mass density: Vibrating tube method

COCCOCCOCCOCCOC [2,5,8,11,14-pentaoxapentadecane] + CCCCO
Conditions | mass density [kg/m3] | viscosity [mPa·s]
288.15 K, x2 = 0 | 1015.63 | 4.341
288.15 K, x2 = 0.1013 | 1006.51 | 4.077
288.15 K, x2 = 0.2236 | 993.986 | 3.779
288.15 K, x2 = 0.3036 | 984.642 | 3.567
288.15 K, x2 = 0.4131 | 969.983 | 3.317
288.15 K, x2 = 0.5065 | 955.349 | 3.129
288.15 K, x2 = 0.5996 | 938.288 | 2.945
288.15 K, x2 = 0.7007 | 916.154 | 2.795
288.15 K, x2 = 0.7991 | 889.873 | 2.74
288.15 K, x2 = 0.8996 | 856.379 | 2.875
293.15 K, x2 = 0 | 1011 | 3.834
293.15 K, x2 = 0.1013 | 1001.91 | 3.591
293.15 K, x2 = 0.2236 | 989.415 | 3.315
293.15 K, x2 = 0.3036 | 980.1 | 3.139
293.15 K, x2 = 0.4131 | 965.493 | 2.922
293.15 K, x2 = 0.5065 | 950.916 | 2.77
293.15 K, x2 = 0.5996 | 933.921 | 2.603
293.15 K, x2 = 0.7007 | 911.881 | 2.474
293.15 K, x2 = 0.7991 | 885.715 | 2.428
293.15 K, x2 = 0.8996 | 852.384 | 2.546
298.15 K, x2 = 0 | 1006.36 | 3.38
298.15 K, x2 = 0.1013 | 997.307 | 3.152
298.15 K, x2 = 0.2236 | 984.881 | 2.93
298.15 K, x2 = 0.3036 | 975.56 | 2.783
298.15 K, x2 = 0.4131 | 960.897 | 2.599
298.15 K, x2 = 0.5065 | 946.305 | 2.462
298.15 K, x2 = 0.5996 | 929.548 | 2.321
298.15 K, x2 = 0.7007 | 907.599 | 2.206
298.15 K, x2 = 0.7991 | 881.548 | 2.165
298.15 K, x2 = 0.8996 | 848.369 | 2.263
303.15 K, x2 = 0 | 1001.73 | 3.004
303.15 K, x2 = 0.1013 | 992.702 | 2.814
303.15 K, x2 = 0.2236 | 980.276 | 2.62
303.15 K, x2 = 0.3036 | 971.014 | 2.488
303.15 K, x2 = 0.4131 | 956.499 | 2.328
303.15 K, x2 = 0.5065 | 942.026 | 2.208
303.15 K, x2 = 0.5996 | 925.164 | 2.087
303.15 K, x2 = 0.7007 | 903.304 | 1.987
303.15 K, x2 = 0.7991 | 877.365 | 1.945
303.15 K, x2 = 0.8996 | 844.334 | 2.015
308.15 K, x2 = 0 | 997.104 | 2.691
308.15 K, x2 = 0.1013 | 988.097 | 2.525
308.15 K, x2 = 0.2236 | 975.701 | 2.357
308.15 K, x2 = 0.3036 | 966.466 | 2.241
308.15 K, x2 = 0.4131 | 951.994 | 2.1
308.15 K, x2 = 0.5065 | 937.569 | 1.991
308.15 K, x2 = 0.5996 | 920.77 | 1.885
308.15 K, x2 = 0.7007 | 898.993 | 1.796
308.15 K, x2 = 0.7991 | 873.162 | 1.757
308.15 K, x2 = 0.8996 | 840.275 | 1.807
313.15 K, x2 = 0 | 992.481 | 2.426
313.15 K, x2 = 0.1013 | 983.495 | 2.278
313.15 K, x2 = 0.2236 | 971.126 | 2.134
313.15 K, x2 = 0.3036 | 961.914 | 2.034
313.15 K, x2 = 0.4131 | 947.487 | 1.905
313.15 K, x2 = 0.5065 | 933.108 | 1.812
313.15 K, x2 = 0.5996 | 916.363 | 1.712
313.15 K, x2 = 0.7007 | 894.665 | 1.631
313.15 K, x2 = 0.7991 | 868.935 | 1.592
313.15 K, x2 = 0.8996 | 836.188 | 1.628
318.15 K, x2 = 0 | 987.859 | 2.199
318.15 K, x2 = 0.1013 | 978.879 | 2.074
318.15 K, x2 = 0.2236 | 966.542 | 1.942
318.15 K, x2 = 0.3036 | 957.357 | 1.853
318.15 K, x2 = 0.4131 | 942.969 | 1.738
318.15 K, x2 = 0.5065 | 928.631 | 1.653
318.15 K, x2 = 0.5996 | 911.939 | 1.562
318.15 K, x2 = 0.7007 | 890.317 | 1.488
318.15 K, x2 = 0.7991 | 864.686 | 1.45
318.15 K, x2 = 0.8996 | 832.069 | 1.47
323.15 K, x2 = 0 | 983.234 | 2.006
323.15 K, x2 = 0.1013 | 974.275 | 1.892
323.15 K, x2 = 0.2236 | 961.962 | 1.777
323.15 K, x2 = 0.3036 | 952.794 | 1.698
323.15 K, x2 = 0.4131 | 938.437 | 1.592
323.15 K, x2 = 0.5065 | 924.136 | 1.515
323.15 K, x2 = 0.5996 | 907.495 | 1.432
323.15 K, x2 = 0.7007 | 885.946 | 1.362
323.15 K, x2 = 0.7991 | 860.406 | 1.325
323.15 K, x2 = 0.8996 | 827.911 | 1.334
328.15 K, x2 = 0 | 978.613 | 1.838
328.15 K, x2 = 0.1013 | 969.653 | 1.736
328.15 K, x2 = 0.2236 | 957.366 | 1.633
328.15 K, x2 = 0.3036 | 948.222 | 1.558
328.15 K, x2 = 0.4131 | 933.901 | 1.465
328.15 K, x2 = 0.5065 | 919.635 | 1.394
328.15 K, x2 = 0.5996 | 903.036 | 1.318
328.15 K, x2 = 0.7007 | 881.55 | 1.254
328.15 K, x2 = 0.7991 | 856.094 | 1.213
328.15 K, x2 = 0.8996 | 823.712 | 1.209
333.15 K, x2 = 0 | 973.989 | 1.691
333.15 K, x2 = 0.1013 | 965.036 | 1.612
333.15 K, x2 = 0.2236 | 952.77 | 1.516
333.15 K, x2 = 0.3036 | 943.642 | 1.448
333.15 K, x2 = 0.4131 | 929.347 | 1.359
333.15 K, x2 = 0.5065 | 915.11 | 1.289
333.15 K, x2 = 0.5996 | 898.551 | 1.223
333.15 K, x2 = 0.7007 | 877.126 | 1.161
333.15 K, x2 = 0.7991 | 851.747 | 1.119
333.15 K, x2 = 0.8996 | 819.469 | 1.104
